From US6355799B1, “Substituted benzene compounds, process for their preparation, and herbicidal and defoliant compositions containing them” (ISK Americas Incorporated, priority 1997, dated 2002)

Experiments:
Format in all cases: in vivo
[1] = test system: redroot pigweed (Amaranthus retroflexus, AMARE); experiment: Pre-emerge test, greenhouse herbicide activity screening; conditions: pre-emerge, rated 14 days after application, 0 = no damage, 100 = complete death
Procedure, shortened: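 Compounds in acetone were track-sprayed at 187 l/ha, 15–1000 g ai/ha, onto sandy loam pots. Pre-emerge seeds were sown one day before spraying, with surface watering afterwards. Post-emerge plants were at the 2–3 leaf stage and sprayed with 0.25% v/v non-ionic surfactant. Injury was rated 0–100 at 14 days.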

[2] = test system: field corn (Zea mays L., var. Dekalb 535, CORN); experiment: Pre-emerge test, crop safety; conditions: pre-emerge, rated 14 days after application, 0 = no damage, 100 = complete death
Procedure, shortened: (§1)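 Fourteen days after spraying, crop and weed injury was graded visually from 0, no effect, to 100, every plant dead. Test substances were dissolved in acetone and applied at 15–1000 g ai/ha with a flat-fan nozzle. Application was either pre-emergence, one day after sowing, or post-emergence at the 2–3 leaf stage.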

[3] = test system: upland rice (Oryza sp., var. Tebonnet, RICE); experiment: Pre-emerge test, crop safety; conditions: pre-emerge, rated 14 days after application, 0 = no damage, 100 = complete death
Procedure, shortened: as §1

[4] = test system: velvetleaf (Abutilon theophrasti, ABUTH); experiment: Pre-emerge test, greenhouse herbicide activity screening; conditions: pre-emerge, rated 14 days after application, 0 = no damage, 100 = complete death
Procedure, shortened: (§2)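 Rating: 0–100 visual injury, 14 DAA. Application: acetone, 187 l/ha, 15–1000 g ai/ha, flat-fan track sprayer with nozzle 40–45 cm above soil or canopy. Post-emerge runs used 0.25% v/v surfactant on 2–3 leaf plants.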

[5] = test system: green foxtail (Setaria viridis, SETVI); experiment: as above; conditions: pre-emerge, rated 14 days after application, 0 = no damage, 100 = complete death
Procedure, shortened: as §2

[6] = test system: barnyardgrass (Echinochloa crus-galli, ECHCG); experiment: as above; conditions: pre-emerge, rated 14 days after application, 0 = no damage, 100 = complete death
Procedure, shortened: as §2

[7] = test system: lambsquarters (Chenopodium album, CHEAL); experiment: as above; conditions: pre-emerge, rated 14 days after application, 0 = no damage, 100 = complete death
Procedure, shortened: as §2

[8] = test system: ivyleaf morningglory (Ipomoea hederacea, IPOHE); experiment: as above; conditions: pre-emerge, rated 14 days after application, 0 = no damage, 100 = complete death
Procedure, shortened: as §2

[9] = test system: sicklepod (Cassia obtusifolia, CASOB); experiment: as above; conditions: pre-emerge, rated 14 days after application, 0 = no damage, 100 = complete death
Procedure, shortened: as §2

[10] = test system: large crabgrass (Digitaria sanguinalis, DIGSA); experiment: as above; conditions: pre-emerge, rated 14 days after application, 0 = no damage, 100 = complete death
Procedure, shortened: as §2

[11] = test system: johnsongrass (Sorghum halepense, SORHA); experiment: as above; conditions: pre-emerge, rated 14 days after application, 0 = no damage, 100 = complete death
Procedure, shortened: as §2

[12] = test system: field corn (Zea mays L., var. Dekalb 535, CORN); experiment: Post-emerge test, crop safety; conditions: phytotoxicity rating 0-100 (0 no damage, 100 complete death), 14 days after application
Procedure, shortened: (§3)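 Plants grown in 10 cm pots of sandy loam mix received acetone-dissolved compounds through a moving flat-fan nozzle. Doses ranged from 15 to 1000 g ai/ha. Pre-emerge pots were seeded one day earlier, post-emerge pots 8–21 days earlier. Fourteen days on, each pot was graded 0–100 for damage.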

[13] = test system: upland rice (Oryza sp., var. Tebonnet, RICE); experiment: Post-emerge test, crop safety; conditions: phytotoxicity rating 0-100 (0 no damage, 100 complete death), 14 days after application
Procedure, shortened: as §3

[14] = test system: velvetleaf (Abutilon theophrasti, ABUTH); experiment: Post-emerge test, greenhouse herbicide activity screening; conditions: phytotoxicity rating 0-100 (0 no damage, 100 complete death), 14 days after application
Procedure, shortened: (§4)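 Each test used a mechanized track sprayer delivering 187 l/ha of acetone solution at 15–1000 g ai/ha. Post-emerge foliage at 2–3 leaves was treated with added 0.25% v/v non-ionic surfactant and bottom-watered only. Injury was assessed on day 14, where 100 means total kill.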

[15] = test system: green foxtail (Setaria viridis, SETVI); experiment: as above; conditions: phytotoxicity rating 0-100 (0 no damage, 100 complete death), 14 days after application
Procedure, shortened: as §4

[16] = test system: common ragweed (Ambrosia artemisizfolia L., AMBEL); experiment: as above; conditions: 250 g ai/ha; phytotoxicity rating 0-100 (0 no damage, 100 complete death), 14 days after application
Procedure, shortened: as §4

[17] = test system: barnyardgrass (Echinochloa crus-galli, ECHCG); experiment: as above; conditions: phytotoxicity rating 0-100 (0 no damage, 100 complete death), 14 days after application
Procedure, shortened: as §4

[18] = test system: lambsquarters (Chenopodium album, CHEAL); experiment: as above; conditions: phytotoxicity rating 0-100 (0 no damage, 100 complete death), 14 days after application
Procedure, shortened: as §4

[19] = test system: ivyleaf morningglory (Ipomoea hederacea, IPOHE); experiment: as above; conditions: phytotoxicity rating 0-100 (0 no damage, 100 complete death), 14 days after application
Procedure, shortened: as §4

[20] = test system: sicklepod (Cassia obtusifolia, CASOB); experiment: as above; conditions: phytotoxicity rating 0-100 (0 no damage, 100 complete death), 14 days after application
Procedure, shortened: as §4

[21] = test system: redroot pigweed (Amaranthus retroflexus, AMARE); experiment: as above; conditions: phytotoxicity rating 0-100 (0 no damage, 100 complete death), 14 days after application
Procedure, shortened: as §4

[22] = test system: large crabgrass (Digitaria sanguinalis, DIGSA); experiment: as above; conditions: phytotoxicity rating 0-100 (0 no damage, 100 complete death), 14 days after application
Procedure, shortened: as §4

[23] = test system: johnsongrass (Sorghum halepense, SORHA); experiment: as above; conditions: phytotoxicity rating 0-100 (0 no damage, 100 complete death), 14 days after application
Procedure, shortened: as §4

COc1c(Cl)cc(F)c(-n2c(=O)cc(C(F)(F)F)n(C)c2=O)c1NC(=O)C1CCCCC1 [2-19]
Pre-emerge Herbicidal Activity AMARE (phytotoxicity rating, scale 0-100) ([1]; 63 g ai/ha): 80 | Pre-emerge Herbicidal Activity AMARE (phytotoxicity rating, scale 0-100) ([1]; 250 g ai/ha): 100 | Pre-emerge crop damage CORN (phytotoxicity rating, scale 0-100) ([2]; 63 g ai/ha): 5 | Pre-emerge crop damage CORN (phytotoxicity rating, scale 0-100) ([2]; 250 g ai/ha): 40 | Pre-emerge crop damage RICE (phytotoxicity rating, scale 0-100) ([3]; 63 g ai/ha): 10 | Pre-emerge crop damage RICE (phytotoxicity rating, scale 0-100) ([3]; 250 g ai/ha): 60 | Pre-emerge Herbicidal Activity ABUTH (phytotoxicity rating, scale 0-100) ([4]; 63 g ai/ha): 90 | Pre-emerge Herbicidal Activity ABUTH (phytotoxicity rating, scale 0-100) ([4]; 250 g ai/ha): 100 | Pre-emerge Herbicidal Activity SETVI (phytotoxicity rating, scale 0-100) ([5]; 63 g ai/ha): 20 | Pre-emerge Herbicidal Activity SETVI (phytotoxicity rating, scale 0-100) ([5]; 250 g ai/ha): 100 | Pre-emerge Herbicidal Activity ECHCG (phytotoxicity rating, scale 0-100) ([6]; 63 g ai/ha): 0 | Pre-emerge Herbicidal Activity ECHCG (phytotoxicity rating, scale 0-100) ([6]; 250 g ai/ha): 50 | Pre-emerge Herbicidal Activity CHEAL (phytotoxicity rating, scale 0-100) ([7]; 63 g ai/ha): 95 | Pre-emerge Herbicidal Activity CHEAL (phytotoxicity rating, scale 0-100) ([7]; 250 g ai/ha): 100 | Pre-emerge Herbicidal Activity IPOHE (phytotoxicity rating, scale 0-100) ([8]; 63 g ai/ha): 10 | Pre-emerge Herbicidal Activity IPOHE (phytotoxicity rating, scale 0-100) ([8]; 250 g ai/ha): 100 | Pre-emerge Herbicidal Activity CASOB (phytotoxicity rating, scale 0-100) ([9]; 63 g ai/ha): 0 | Pre-emerge Herbicidal Activity CASOB (phytotoxicity rating, scale 0-100) ([9]; 250 g ai/ha): 10 | Pre-emerge Herbicidal Activity DIGSA (phytotoxicity rating, scale 0-100) ([10]; 63 g ai/ha): 40 | Pre-emerge Herbicidal Activity DIGSA (phytotoxicity rating, scale 0-100) ([10]; 250 g ai/ha): 100 | Pre-emerge Herbicidal Activity SORHA (phytotoxicity rating, scale 0-100) ([11]; 63 g ai/ha): 0 | Pre-emerge Herbicidal Activity SORHA (phytotoxicity rating, scale 0-100) ([11]; 250 g ai/ha): 60 | Post-emerge Herbicidal Activity CORN (crop damage) ([12]; 63 g ai/ha): 0 | Post-emerge Herbicidal Activity CORN (crop damage) ([12]; 250 g ai/ha): 0 | Post-emerge Herbicidal Activity RICE (crop damage) ([13]; 63 g ai/ha): 0 | Post-emerge Herbicidal Activity RICE (crop damage) ([13]; 250 g ai/ha): 20 | Post-emerge Herbicidal Activity ABUTH ([14]; 63 g ai/ha): 90 | Post-emerge Herbicidal Activity ABUTH ([14]; 250 g ai/ha): 100 | Post-emerge Herbicidal Activity SETVI ([15]; 63 g ai/ha): 0 | Post-emerge Herbicidal Activity SETVI ([15]; 250 g ai/ha): 30 | Post-emerge Herbicidal Activity AMBEL [16]: 30 | Post-emerge Herbicidal Activity ECHCG ([17]; 63 g ai/ha): 0 | Post-emerge Herbicidal Activity ECHCG ([17]; 250 g ai/ha): 0 | Post-emerge Herbicidal Activity CHEAL ([18]; 63 g ai/ha): 50 | Post-emerge Herbicidal Activity CHEAL ([18]; 250 g ai/ha): 50 | Post-emerge Herbicidal Activity IPOHE ([19]; 63 g ai/ha): 70 | Post-emerge Herbicidal Activity IPOHE ([19]; 250 g ai/ha): 100 | Post-emerge Herbicidal Activity CASOB ([20]; 63 g ai/ha): 0 | Post-emerge Herbicidal Activity CASOB ([20]; 250 g ai/ha): 10 | Post-emerge Herbicidal Activity AMARE ([21]; 63 g ai/ha): 40 | Post-emerge Herbicidal Activity AMARE ([21]; 250 g ai/ha): 75 | Post-emerge Herbicidal Activity DIGSA ([22]; 63 g ai/ha): 0 | Post-emerge Herbicidal Activity DIGSA ([22]; 250 g ai/ha): 0 | Post-emerge Herbicidal Activity SORHA ([23]; 63 g ai/ha): 0 | Post-emerge Herbicidal Activity SORHA ([23]; 250 g ai/ha): 0
